The text below walks through data of patent publication US12649750B2, “Macrocyclic compounds, compositions, and methods of using thereof” (Sionna Therapeutics Inc., priority 2022, dated 2026).

The target of one assay is T1, NBD1 (Homo sapiens, UniProt P13569).
T1 construct: Purified recombinant NBD1 was produced using previously described methods; made in house
Briefly: Aggregation analysis using differential static light scattering (DSLS), thermal stability of NBD1 (ΔTagg). As to conditions: ΔTagg versus DMSO control, NBD1 0.2 mg/ml. It is filed as binding. Summed up:
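Stabilisation is measured as the shift in aggregation onset of recombinant NBD1 (0.2 mg/ml, 2 mM ATP, 5 mM MgCl2, pH7.6) exposed to compound. Images are taken every 0.5° C. while heating at 1° C. per minute, and the inflection-point Tagg is corrected by the DMSO mean.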

In another assay the target is T2, CFTR (Homo sapiens, UniProt P13569, DEL508-508).
T2 construct: Primary human bronchial epithelial cells from a ΔF508 homozygous CF donor; host or cells: primary human bronchial epithelial cells (CF-HBE), ΔF508 homozygous donor
Briefly: TECC24 AUC fold over DMSO @10 μM, CFTR-mediated transepithelial chloride transport in CF-HBE cells. Format: cell-based. As to conditions: test agent AUC divided by DMSO vehicle AUC, primary CF-HBE cells, ΔF508 homozygous donor, 48 hours incubation. The procedure, abridged:
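ΔF508-homozygous primary bronchial epithelial cells incubated 48 h at 36.5° C with compound (10 μM) in IL-13-containing medium, then TECC24 current-clamp recording in pH 7.4 Hepes saline with benzamil 10 μM, forskolin 10 μM, then CFTR inhibitor-172 20 μM. Equivalent Cl− current AUC between forskolin and inhibitor, expressed as fold over DMSO.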

T2 sequence (P13569 with tags, fused parts or gaps DEL508-508): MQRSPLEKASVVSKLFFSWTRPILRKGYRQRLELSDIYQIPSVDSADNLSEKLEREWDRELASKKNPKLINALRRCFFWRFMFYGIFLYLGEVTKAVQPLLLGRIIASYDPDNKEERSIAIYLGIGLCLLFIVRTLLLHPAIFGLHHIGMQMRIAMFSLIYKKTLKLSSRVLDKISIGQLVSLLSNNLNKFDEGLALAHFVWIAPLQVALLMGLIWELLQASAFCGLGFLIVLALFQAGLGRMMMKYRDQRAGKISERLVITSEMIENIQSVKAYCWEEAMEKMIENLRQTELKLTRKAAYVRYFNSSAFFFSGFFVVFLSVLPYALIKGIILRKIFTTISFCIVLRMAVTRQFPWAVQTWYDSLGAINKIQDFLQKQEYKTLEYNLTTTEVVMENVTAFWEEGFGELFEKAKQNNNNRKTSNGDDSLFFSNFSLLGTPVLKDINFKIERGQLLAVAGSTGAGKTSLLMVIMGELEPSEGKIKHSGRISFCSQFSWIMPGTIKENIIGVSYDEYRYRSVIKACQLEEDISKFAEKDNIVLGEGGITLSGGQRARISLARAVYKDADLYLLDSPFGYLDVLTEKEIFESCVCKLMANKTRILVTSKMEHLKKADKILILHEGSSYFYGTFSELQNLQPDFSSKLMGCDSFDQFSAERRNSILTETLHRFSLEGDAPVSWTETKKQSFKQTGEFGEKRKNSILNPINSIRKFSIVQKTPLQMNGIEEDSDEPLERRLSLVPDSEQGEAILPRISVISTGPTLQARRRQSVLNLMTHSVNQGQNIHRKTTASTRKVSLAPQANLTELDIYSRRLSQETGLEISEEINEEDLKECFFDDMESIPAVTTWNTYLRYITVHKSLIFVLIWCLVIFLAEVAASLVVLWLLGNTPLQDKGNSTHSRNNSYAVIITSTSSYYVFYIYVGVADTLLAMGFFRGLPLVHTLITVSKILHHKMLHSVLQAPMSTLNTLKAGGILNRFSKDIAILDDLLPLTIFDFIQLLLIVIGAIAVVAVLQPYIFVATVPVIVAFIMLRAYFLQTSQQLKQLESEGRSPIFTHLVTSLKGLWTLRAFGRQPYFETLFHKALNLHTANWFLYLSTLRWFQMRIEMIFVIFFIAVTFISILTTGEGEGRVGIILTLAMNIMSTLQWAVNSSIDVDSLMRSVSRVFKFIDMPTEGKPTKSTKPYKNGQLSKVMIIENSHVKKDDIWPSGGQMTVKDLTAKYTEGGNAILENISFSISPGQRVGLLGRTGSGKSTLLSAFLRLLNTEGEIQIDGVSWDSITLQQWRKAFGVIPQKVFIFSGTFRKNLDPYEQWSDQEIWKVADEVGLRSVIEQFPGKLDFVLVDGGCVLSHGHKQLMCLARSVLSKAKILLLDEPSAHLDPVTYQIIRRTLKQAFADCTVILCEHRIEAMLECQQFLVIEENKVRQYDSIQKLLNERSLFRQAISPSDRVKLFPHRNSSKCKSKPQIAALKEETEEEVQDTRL
T1 sequence (P13569 423-646 limits assumed): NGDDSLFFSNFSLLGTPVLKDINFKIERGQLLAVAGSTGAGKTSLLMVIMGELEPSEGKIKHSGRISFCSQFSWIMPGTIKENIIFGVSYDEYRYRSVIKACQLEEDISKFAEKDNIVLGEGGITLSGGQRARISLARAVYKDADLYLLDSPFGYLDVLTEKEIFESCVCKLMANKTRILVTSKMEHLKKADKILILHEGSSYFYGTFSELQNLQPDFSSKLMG

On to `Cn1nc2nc1-c1cc(ccc1F)Cc1c(F)cc3[nH]ccc3c1CCS(=O)(=O)CC(C)(C)CCCC2(C)c1cccc(/C=C/C(=O)O)c1` (racemic) [Compound 167, (E)-3-[3-(22,28-Difluoro-3,6,10,10-tetramethyl-12,12-dioxo-12λ6-thia-3,4,19,30-tetrazapentacyclo[23.3.1.12,5.015,23.016,20]triaconta-1(29),2(30),4,15,17,20,22,25,27-nonaen-6-yl)phenyl]prop-2-enoic Acid], for which, at NBD1, the “DSLS 3D (100 μM ΔT)” value was “C (a value greater than 10 °C and less than or equal to 25 °C is marked “C”)”. In addition, the “TECC (AUC, 10 μM)” value at CFTR is listed as “A (a TECC value less than 12 is marked “A”)”.
In the case of `Cn1nc2nc1-c1cc(ccn1)[S+]([O-])c1c(F)cc3[nH]ccc3c1CCS(=O)(=O)CC(C)(C)CCC[C@]2(C)c1cccc(CCO)c1` (single isomer, unassigned) [Compound 250], the “DSLS 3D (100 μM ΔT)” value at NBD1 was “C (a value greater than 10 °C and less than or equal to 25 °C is marked “C”)”. On CFTR, the “TECC (AUC, 10 μM)” value was “C (a value between 20 and 80 is marked “C”)”.
Turning to `Cn1nc2nc1-c1cc(ccn1)[S+]([O-])c1c(F)cc3[nH]ccc3c1CCS(=O)(=O)CC(C)(C)CCC[C@]2(C)c1cccc(CC(=O)O)c1` (single isomer, unassigned) [Compound 249B], the “DSLS 3D (100 μM ΔT)” value at NBD1 is “C (a value greater than 10 °C and less than or equal to 25 °C is marked “C”)”. In addition, on CFTR, the “TECC (AUC, 10 μM)” value was “B (a value between 12-20 is marked “B”)”.
On to `Cn1nc2nc1-c1cc(ccc1F)Oc1c(F)cc3[nH]ccc3c1CCS(=O)(=O)CC(C)(C)CCCC2(C)c1cccc(CC(O)CO)c1` (single isomer, unassigned) [Compound 97B, 3-[3-(22,28-difluoro-3,6,10,10-tetramethyl-12,12-dioxo-24-oxa-12λ6-thia-3,4,19,30-tetrazapentacyclo[23.3.1.12,5.015,23.016,20]triaconta-1(29),2(30),4,15,17,20,22,25,27-nonaen-6-yl)phenyl]propane-1,2-diol], for which the “DSLS 3D (100 μM ΔT)” value at NBD1 was “A (an ΔTagg value less than or equal to 5 °C is marked “A”)”. Also, the “TECC (AUC, 10 μM)” value on CFTR is “A (a TECC value less than 12 is marked “A”)”.
The matching figures for `[2H]C([2H])([2H])C1(c2cccc(CC(C)C(=O)O)c2)COCC(C)(C)CS(=O)(=O)CCc2c(c(F)c(F)c3[nH]ccc23)Oc2ccc(F)c(c2)-c2nc1nn2C` (single isomer, unassigned) [Compound 118B, 2-methyl-3-[3-[21,22,28-trifluoro-3,10,10-trimethyl-12,12-dioxo-6-(trideuteriomethyl)-8,24-dioxa-12λ6-thia-3,4,19,30-tetrazapentacyclo[23.3.1.12,5.015,23.016,20]triaconta-1(29),2(30),4,15,17,20,22,25,27-nonaen-6-yl]phenyl]propanoic acid]: “A (an ΔTagg value less than or equal to 5 °C is marked “A”)” and “A (a TECC value less than 12 is marked “A”)”.
For `C[C@@H](Cc1cccc(C2(C)CCCC(C)(C)CS(=O)(=O)CCc3c(c(F)cc4[nH]ccc34)Oc3ccc(F)c(c3)-c3nc2nn3C)c1)C(=O)OCC(O)CO` (single isomer, unassigned) [Compound 141], the “DSLS 3D (100 μM ΔT)” value on NBD1 is “C (a value greater than 10 °C and less than or equal to 25 °C is marked “C”)”. The “TECC (AUC, 10 μM)” value at CFTR is “B (a value between 12-20 is marked “B”)”.
Consider `C[C@@H](Cc1cccc(C2(C)CCCCCS(=O)(=O)CCc3c(c(F)cc4[nH]ccc34)Oc3ccnc(c3)-c3nc2nn3C)c1)C(=O)O` (single isomer, unassigned) [Compound 261A], for which the “DSLS 3D (100 μM ΔT)” value on NBD1 was “C (a value greater than 10 °C and less than or equal to 25 °C is marked “C”)”. Moreover, the “TECC (AUC, 10 μM)” value at CFTR is “C (a value between 20 and 80 is marked “C”)”.
For the compound `Cn1nc2nc1C(C)(c1cccc(CCC(=O)O)c1)CCCC(C)(C)CS(=O)(=O)CCc1c(c(F)cc3[nH]ccc13)Oc1ccc(F)c-2c1` (single isomer, unassigned) [Compound 55B, 3-[3-(22,28-difluoro-4,6,10,10-tetramethyl-12,12-dioxo-24-oxa-12 lambda6-thia-3,4,19,30-tetrazapentacyclo[23.3.1.12,5.015,23.016,20]triaconta-1(29),2,5(30),15,17,20,22,25,27-nonaen-6yl)phenyl]propanoic Acid], the “DSLS 3D (100 μM ΔT)” value on NBD1 was “B (a value above 5 °C and less than or equal to 10 °C is marked “B”)”. In addition, the “TECC (AUC, 10 μM)” value on CFTR is “A (a TECC value less than 12 is marked “A”)”.
`Cn1nc2nc1-c1cc(ccc1F)Oc1c(F)cc3[nH]ccc3c1CCS(=O)(=O)CC(C)(C)CCCC2(C)c1cccc(CCC(=O)O)c1` (racemic) [Compound 56, 3-[3-(22,28-Difluoro-3,6,10,10-tetramethyl-12,12-dioxo-24-oxa-12lambda6-thia-3,4,19,30-tetrazapentacyclo[23.3.1.12,5.015,23.016,20]triaconta-1(29),2(30),4,15,17,20,22,25,27-nonaen-6-yl)phenyl]propanoic acid]: the “DSLS 3D (100 μM ΔT)” value on NBD1 was “C (a value greater than 10 °C and less than or equal to 25 °C is marked “C”)”. Further, on CFTR, the “TECC (AUC, 10 μM)” value is “A (a TECC value less than 12 is marked “A”)”.
Regarding `CC1(C)CCCC(C)(c2cccc(OCC(=O)O)c2)c2cnc([nH]2)-c2cc(ccc2F)Oc2c(F)cc3[nH]ccc3c2CCS(=O)(=O)C1` (single isomer, unassigned) [Compound 54B, 2-[3-(22,28-difluoro-6,10,10-trimethyl-12,12-dioxo-24-oxa-12lambda6-thia-3,19,30-triazapentacyclo[23.3.1.12,5.015,23.016,20]triaconta-1(29),2,4,15,17,20,22,25,27-nonaen-6-yl)phenoxy]acetic acid], the “DSLS 3D (100 μM ΔT)” value at NBD1 was “B (a value above 5 °C and less than or equal to 10 °C is marked “B”)”. On CFTR, the “TECC (AUC, 10 μM)” value is recorded as “A (a TECC value less than 12 is marked “A”)”.
`CC1(C)CCCC(c2cccc(CCC(=O)O)c2)n2ccc(n2)-c2cccc(c2)Oc2c(F)cc3[nH]ccc3c2CCS(=O)(=O)C1` (centres unmarked) [Compound 23, 3-[3-(22-Fluoro-10,10-dimethyl-12,12-dioxo-24-oxa-12lambda6-thia-5,19,30-triazapentacyclo[23.3.1.12,5.015,23.016,20]triaconta-1(29),2(30),3,15,17,20,22,25,27-nonaen-6-yl)phenyl]propanoic Acid]: the “DSLS 3D (100 μM ΔT)” value at NBD1 is “C (a value greater than 10 °C and less than or equal to 25 °C is marked “C”)”. The “TECC (AUC, 10 μM)” value at CFTR is “B (a value between 12-20 is marked “B”)”.
`CC1(C)CCCC(C)(c2cccc(CCC(=O)O)c2)c2coc(n2)-c2cccc(c2)Oc2c(F)cc3[nH]ccc3c2CCS(=O)(=O)C1` (centres unmarked) [Compound 51, 3-[3-(22-Fluoro-6,10,10-trimethyl-12,12-dioxo-3,24-dioxa-12λ6-thia-19,30-diazapentacyclo[23.3.1.12,5.015,23.016,20]triaconta-1(29),2(30),4,15,17,20,22,25,27-nonaen-6-yl)phenyl]propanoic Acid]: the “DSLS 3D (100 μM ΔT)” value on NBD1 is “C (a value greater than 10 °C and less than or equal to 25 °C is marked “C”)”. Moreover, the “TECC (AUC, 10 μM)” value at CFTR was “A (a TECC value less than 12 is marked “A”)”.
As to `C[C@@H](Cc1cccc([C@@]2(C)CCCC(C)(C)CS(=O)(=O)CCc3c(c(F)cc4[nH]ccc34)[S+]([O-])c3ccnc(c3)-c3nc2nn3C)c1)C(=O)O` (single isomer, unassigned) [Compound 222B], the “DSLS 3D (100 μM ΔT)” value on NBD1 was “C (a value greater than 10 °C and less than or equal to 25 °C is marked “C”)”. Further, the “TECC (AUC, 10 μM)” value at CFTR is “C (a value between 20 and 80 is marked “C”)”.
For `Cn1nc2nc1-c1cc(ccc1F)[S+]([O-])c1c(F)cc3[nH]ccc3c1CCS(=O)(=O)CC(C)(C)CCC[C@]2(C)c1cccc(C[C@@H](O)CO)c1` (single isomer, unassigned) [Compound 235A], the “DSLS 3D (100 μM ΔT)” value at NBD1 is “B (a value above 5 °C and less than or equal to 10 °C is marked “B”)”. Moreover, on CFTR, the “TECC (AUC, 10 μM)” value was “B (a value between 12-20 is marked “B”)”.
Consider `C[C@H](Cc1cccc([C@@]2(C)CCCC(C)(C)CS(=O)(=O)CCc3c(c(F)cc4[nH]ccc34)Oc3ccc(F)c(c3)C3=NN=C2S3)c1)C(=O)O` [Compound 194, (2R)-3-[3-[(6R)-22,28-difluoro-6,10,10-trimethyl-12,12-dioxo-24-oxa-12λ6,30-dithia-3,4,19-triazapentacyclo[23.3.1.12,5.015,23.016,20]triaconta-1(29),2,4,15,17,20,22,25,27-nonaen-6-yl]phenyl]-2-methyl-propanoic Acid], for which the “DSLS 3D (100 μM ΔT)” value at NBD1 is “A (an ΔTagg value less than or equal to 5 °C is marked “A”)”. The “TECC (AUC, 10 μM)” value at CFTR is “B (a value between 12-20 is marked “B”)”.
In the case of `Cn1nc2nc1-c1cc(ccc1F)Oc1c(F)cc3[nH]ccc3c1CCS(=O)(=O)CC(C)(C)CCCC2(C)c1cccc(CC2CCN(O)C2=O)c1` (centres unmarked) [Compound 199, 3-[[3-(22,28-Difluoro-3,6,10,10-tetramethyl-12,12-dioxo-24-oxa-12λ6-thia-3,4,19,30-tetrazapentacyclo[23.3.1.12,5.015,23.016,20]triaconta-1(29),2(30),4,15,17,20,22,25,27-nonaen-6-yl)phenyl]methyl]-1-hydroxy-pyrrolidin-2-one], the “DSLS 3D (100 μM ΔT)” value on NBD1 is “C (a value greater than 10 °C and less than or equal to 25 °C is marked “C”)”. Besides, on CFTR, the “TECC (AUC, 10 μM)” value was “C (a value between 20 and 80 is marked “C”)”.
